Measurements reported in ChEMBL document CHEMBL1131644, “1-Methoxy-agroclavine from Penicillium sp. WC75209, a novel inhibitor of the Lck tyrosine kinase” (Bioorg Med Chem Lett, 1998).
Calls of active or inactive are those of the source. The calls are words filed in the database; no cut-off is given here.

Experiments:
[1] = target: T1, Tyrosine-protein kinase Lck (Homo sapiens, UniProt P06239); assay: Inhibition of p56 lck autophosphorylation, gamma-[33P]ATP incorporation (Inactive)
Target sequence in this assay (P06239 whole entry): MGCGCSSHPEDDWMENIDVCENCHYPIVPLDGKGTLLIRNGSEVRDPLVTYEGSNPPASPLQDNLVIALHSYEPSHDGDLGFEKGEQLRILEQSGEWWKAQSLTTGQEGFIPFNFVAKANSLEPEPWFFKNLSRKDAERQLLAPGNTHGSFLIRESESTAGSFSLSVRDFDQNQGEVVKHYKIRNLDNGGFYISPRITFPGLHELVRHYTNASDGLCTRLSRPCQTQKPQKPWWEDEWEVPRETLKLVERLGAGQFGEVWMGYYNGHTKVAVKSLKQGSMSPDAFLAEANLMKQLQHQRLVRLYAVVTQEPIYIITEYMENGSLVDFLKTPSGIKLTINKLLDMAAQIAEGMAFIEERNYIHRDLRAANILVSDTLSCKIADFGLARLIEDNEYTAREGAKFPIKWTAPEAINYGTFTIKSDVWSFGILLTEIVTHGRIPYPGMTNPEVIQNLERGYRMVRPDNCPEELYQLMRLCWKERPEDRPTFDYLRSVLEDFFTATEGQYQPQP

[2] = target: T2, Tyrosine-protein kinase SYK (Homo sapiens, UniProt P43405); assay: Inhibition of p72 syk autophosphorylation (Inactive)
[3] = target: T3, Tyrosine-protein kinase Blk (Homo sapiens, UniProt P51451); assay: (§1) Inhibition of p74 Blk tyrosine kinase autophosphorylation (Inactive)
Target sequence in this assay (P51451 whole entry): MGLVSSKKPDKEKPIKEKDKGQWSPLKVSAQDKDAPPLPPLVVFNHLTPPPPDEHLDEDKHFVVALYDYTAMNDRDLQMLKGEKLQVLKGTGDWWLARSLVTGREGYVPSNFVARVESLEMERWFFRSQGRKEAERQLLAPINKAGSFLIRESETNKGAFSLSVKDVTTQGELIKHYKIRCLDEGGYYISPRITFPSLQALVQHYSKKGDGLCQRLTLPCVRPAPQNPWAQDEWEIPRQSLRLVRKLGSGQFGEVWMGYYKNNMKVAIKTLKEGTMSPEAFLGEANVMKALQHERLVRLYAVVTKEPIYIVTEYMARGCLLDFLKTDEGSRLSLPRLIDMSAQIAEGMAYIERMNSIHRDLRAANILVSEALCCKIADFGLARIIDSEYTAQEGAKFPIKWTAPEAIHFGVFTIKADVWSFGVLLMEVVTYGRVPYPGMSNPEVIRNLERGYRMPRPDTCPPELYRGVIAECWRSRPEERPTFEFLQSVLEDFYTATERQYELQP

[4] = target: T4, CaM kinase II (Homo sapiens) (UniProt Q13557+Q13555+Q13554+Q9UQM7); assay: (§2) Inhibition of [Ca(2+)]/Calmodulin-dependent Type II protein kinase at 10 uM; type: protein assay
[5] = target: Tyrosine-protein kinase Fyn (Homo sapiens) (UniProt P06241); assay: Inhibition of Fyn protein kinase at 10 uM
[6] = target: Receptor tyrosine-protein kinase erbB-2 (Homo sapiens) (UniProt P04626); assay: Inhibition of Her2, ErbB2 receptor tyrosine kinase at 10 uM
Sequence of Receptor tyrosine-protein kinase erbB-2 (Homo sapiens) (P04626 whole entry): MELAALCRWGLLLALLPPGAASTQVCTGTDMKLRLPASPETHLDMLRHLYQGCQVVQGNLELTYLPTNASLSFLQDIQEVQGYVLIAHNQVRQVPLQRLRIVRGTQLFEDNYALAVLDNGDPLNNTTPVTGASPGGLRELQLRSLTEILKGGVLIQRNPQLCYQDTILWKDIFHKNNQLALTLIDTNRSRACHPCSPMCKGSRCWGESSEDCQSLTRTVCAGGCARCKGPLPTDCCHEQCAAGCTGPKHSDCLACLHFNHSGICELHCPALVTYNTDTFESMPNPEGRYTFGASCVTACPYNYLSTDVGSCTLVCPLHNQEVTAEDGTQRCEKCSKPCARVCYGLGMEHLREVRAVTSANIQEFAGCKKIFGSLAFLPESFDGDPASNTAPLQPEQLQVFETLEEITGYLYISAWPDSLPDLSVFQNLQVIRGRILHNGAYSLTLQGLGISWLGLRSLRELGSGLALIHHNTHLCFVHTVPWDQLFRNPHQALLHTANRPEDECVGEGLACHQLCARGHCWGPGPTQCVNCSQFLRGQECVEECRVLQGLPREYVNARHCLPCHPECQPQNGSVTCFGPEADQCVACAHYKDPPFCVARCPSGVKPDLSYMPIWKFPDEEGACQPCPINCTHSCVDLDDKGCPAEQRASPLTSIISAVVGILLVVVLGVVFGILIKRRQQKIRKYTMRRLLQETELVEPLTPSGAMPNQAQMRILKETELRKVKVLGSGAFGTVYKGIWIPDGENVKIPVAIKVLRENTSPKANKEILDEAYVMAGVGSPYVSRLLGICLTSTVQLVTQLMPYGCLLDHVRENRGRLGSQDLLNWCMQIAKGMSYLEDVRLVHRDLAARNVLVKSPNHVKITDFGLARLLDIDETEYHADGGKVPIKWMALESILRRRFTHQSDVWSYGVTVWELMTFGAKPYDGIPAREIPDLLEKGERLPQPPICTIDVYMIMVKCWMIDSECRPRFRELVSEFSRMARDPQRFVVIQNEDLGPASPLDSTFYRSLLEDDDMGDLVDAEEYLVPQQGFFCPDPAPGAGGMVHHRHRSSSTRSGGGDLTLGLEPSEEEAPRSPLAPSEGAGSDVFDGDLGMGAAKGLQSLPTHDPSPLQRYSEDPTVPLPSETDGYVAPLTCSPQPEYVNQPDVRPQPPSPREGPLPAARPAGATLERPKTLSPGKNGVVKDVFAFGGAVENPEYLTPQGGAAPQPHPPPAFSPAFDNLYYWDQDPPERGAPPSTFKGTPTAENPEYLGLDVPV

[7] = target: T1, Tyrosine-protein kinase Lck; assay: Inhibition of Lck protein kinase at 10 uM
Target sequence in this assay (P06239 2-509 limits assumed): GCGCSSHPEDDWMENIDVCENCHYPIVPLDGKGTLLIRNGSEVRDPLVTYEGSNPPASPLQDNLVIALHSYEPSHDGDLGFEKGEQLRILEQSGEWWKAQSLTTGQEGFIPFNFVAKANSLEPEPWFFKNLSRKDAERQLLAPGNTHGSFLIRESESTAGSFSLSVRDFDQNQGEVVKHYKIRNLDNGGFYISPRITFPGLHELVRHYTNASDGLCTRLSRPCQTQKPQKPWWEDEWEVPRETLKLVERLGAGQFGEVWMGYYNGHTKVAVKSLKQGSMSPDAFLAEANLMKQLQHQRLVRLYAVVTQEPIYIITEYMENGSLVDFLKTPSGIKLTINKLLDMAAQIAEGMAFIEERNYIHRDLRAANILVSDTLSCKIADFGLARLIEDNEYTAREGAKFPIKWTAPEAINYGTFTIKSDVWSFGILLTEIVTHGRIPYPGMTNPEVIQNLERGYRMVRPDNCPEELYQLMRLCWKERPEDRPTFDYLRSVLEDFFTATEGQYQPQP

[8] = test system: M109; assay: Cytotoxic effect on M109 mouse lung carcinoma cells at 40 uM (No effect); type: functional, cell-based
[9] = target: Protein kinase C beta type (Homo sapiens) (UniProt P05771); assay: Inhibition of Protein Kinase C beta at 10 uM Histone H1 substrate (Inactive)
Sequence of Protein kinase C beta type (Homo sapiens) (P05771 2-671 limits assumed): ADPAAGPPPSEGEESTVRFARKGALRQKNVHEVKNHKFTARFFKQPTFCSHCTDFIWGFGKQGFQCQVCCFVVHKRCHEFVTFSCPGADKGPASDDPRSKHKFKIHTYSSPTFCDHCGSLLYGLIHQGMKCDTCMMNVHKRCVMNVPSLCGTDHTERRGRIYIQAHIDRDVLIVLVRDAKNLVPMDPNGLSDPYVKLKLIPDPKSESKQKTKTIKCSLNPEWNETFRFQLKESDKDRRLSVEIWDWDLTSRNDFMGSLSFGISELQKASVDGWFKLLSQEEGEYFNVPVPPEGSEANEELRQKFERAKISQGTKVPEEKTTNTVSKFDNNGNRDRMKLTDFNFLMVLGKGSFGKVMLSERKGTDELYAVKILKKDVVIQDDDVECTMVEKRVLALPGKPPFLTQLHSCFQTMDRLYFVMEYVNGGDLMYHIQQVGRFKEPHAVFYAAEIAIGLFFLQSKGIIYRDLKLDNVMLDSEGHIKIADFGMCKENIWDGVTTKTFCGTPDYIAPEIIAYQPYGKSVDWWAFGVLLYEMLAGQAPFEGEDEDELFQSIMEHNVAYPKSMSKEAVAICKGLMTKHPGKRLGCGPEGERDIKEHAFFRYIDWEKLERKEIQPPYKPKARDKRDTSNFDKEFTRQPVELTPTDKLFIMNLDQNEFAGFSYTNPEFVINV

[10] = target: Protein kinase C alpha type (Homo sapiens) (UniProt P17252); assay: Inhibition of Protein kinase C alpha at 10 uM Histone H1 substrate
[11] = target: T4, CaM kinase II (Homo sapiens); assay: as §2; type: protein assay; remark: listed apart in the source
[12] = target: Protein kinase C gamma type (Homo sapiens) (UniProt P05129); assay: Inhibition of Protein Kinase C gamma at 10 uM Histone H1 substrate
[13] = Inhibition of cAMP-dependent protein kinase at 10 uM Histone H1 substrate
[14] = target: T1, Tyrosine-protein kinase Lck; assay: Inhibition of p56 lck autophosphorylation, gamma-[33P]ATP incorporation
Target sequence in this assay (P06239 whole entry): as the sequence (P06239 whole entry) above

[15] = target: T2, Tyrosine-protein kinase SYK; assay: Inhibition of p72 syk autophosphorylation
[16] = target: T3, Tyrosine-protein kinase Blk; assay: as §1; remark: listed apart in the source
[17] = target: Epidermal growth factor receptor (Homo sapiens) (UniProt P00533); settings: 10 uM
Description: Inhibition of Epidermal growth factor receptor at 10 uM

Compound: CC1=C[C@@H]2c3cccc4[nH]cc(c34)C[C@H]2N(C)C1 [AGROCLAVINE]
- IC50 [1]: Not Active
- IC50 [2]: Not Active
- IC50 [3]: Not Active

Compound: COn1cc2c3c(cccc31)[C@@H]1C=C(C)CN(C)[C@@H]1C2
- inhibition [4]: inactive
- inhibition [5]: 19%
- inhibition [6]: 9%
- inhibition [7]: 42%
- Cytotoxicity [8]: inactive
- inhibition [9]: inactive
- inhibition [10]: inactive
- inhibition [11]: inactive
- inhibition [12]: inactive
- inhibition [13]: inactive
- IC50 [14]: 8.5 µM
- IC50 [15]: 285 µM
- inhibition [16]: inactive
- inhibition [17]: 14%

Compound: CN1C[C@H](CO)C=C2c3cccc4[nH]cc(c34)C[C@H]21
- IC50 [1]: Not Active
